Key:
Assay in all cases: Microbiological challenge testing in BPW broth, graded subculture counts
Format in all cases: cell-based
Aeromonas sp. Wild type = system: Aeromonas sp. Wild type
How it was run: (§1)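 TSB + 1% dextrose cultures, 35 ± 2 °C, ≥96 h. Inoculum calibrated by NTU vs plate counts; challenge at 10^5–10^6 CFU/mL final in BPW/1% dextrose with test material. Triplicates (butoxyethanol in duplicate). Spread plates on PCA, ≥48 h, CFU/mL = count × dilution.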

[1] = system: Bacillus subtilis Wild type
How it was run: as §1

[2] = system: Burkholderia cepacia Wild type; conditions: B. cepacia
How it was run: as §1

[3] = system: Staphylococcus aureus ATCC 25923; conditions: S. aureus
How it was run: as §1

[4] = system: Staphylococcus epidermidis ATCC 12228
How it was run: as §1

[5] = system: Streptococcus mutans ATCC 35668
How it was run: as §1

## O=C([O-])CN(CCN(CC(=O)[O-])CC(=O)O)CC(=O)O.[Na+].[Na+] [EDTA, Na2EDTA]
Aeromonas sp. Wild type; 0.5% weight/volume
  Aeromonas sp growth grade, 3 day: 5 (More than 10,000 colonies estimated (thus more than 100,000 CFU/mL))
  Aeromonas sp growth grade, 14 day: 4 (1000 to 10,000 colonies countable (thus 10,000 CFU/mL to 100,000 CFU/mL))
  Aeromonas sp growth grade, 30 day: 4 (1000 to 10,000 colonies countable (thus 10,000 CFU/mL to 100,000 CFU/mL))
Aeromonas sp. Wild type; 1.25% weight/volume
  Aeromonas sp growth grade, 3 day: 4 (1000 to 10,000 colonies countable (thus 10,000 CFU/mL to 100,000 CFU/mL))
  Aeromonas sp growth grade, 14 day: 4 (1000 to 10,000 colonies countable (thus 10,000 CFU/mL to 100,000 CFU/mL))
  Aeromonas sp growth grade, 30 day: 4 (1000 to 10,000 colonies countable (thus 10,000 CFU/mL to 100,000 CFU/mL))
Aeromonas sp. Wild type; 2.5% weight/volume
  Aeromonas sp growth grade, 3 day: 3 (100 to 1000 colonies (thus 1000 to 10,000 CFU/mL))
  Aeromonas sp growth grade, 14 day: 2 (52 to 100 colonies counted (thus 520 to 1000 CFU/mL))
  Aeromonas sp growth grade, 30 day: 1 (0 to 51 colonies counted (thus 10 to 510 CFU/mL based on 0.1-mL sample))
Aeromonas sp. Wild type; 5.0% weight/volume
  Aeromonas sp growth grade, 3 day: 1 (0 to 51 colonies counted (thus 10 to 510 CFU/mL based on 0.1-mL sample))
  Aeromonas sp growth grade, 14 day: 0
  Aeromonas sp growth grade, 30 day: 0
[1]; 0.5% weight/volume
  B. subtillis growth grade, 3 day: 4 (1000 to 10,000 colonies countable (thus 10,000 CFU/mL to 100,000 CFU/mL))
  B. subtillis growth grade, 14 day: 4 (1000 to 10,000 colonies countable (thus 10,000 CFU/mL to 100,000 CFU/mL))
  B. subtillis growth grade, 30 day: 4 (1000 to 10,000 colonies countable (thus 10,000 CFU/mL to 100,000 CFU/mL))
[1]; 1.25% weight/volume
  B. subtillis growth grade, 3 day: 2 (52 to 100 colonies counted (thus 520 to 1000 CFU/mL))
  B. subtillis growth grade, 14 day: 2 (52 to 100 colonies counted (thus 520 to 1000 CFU/mL))
  B. subtillis growth grade, 30 day: 2 (52 to 100 colonies counted (thus 520 to 1000 CFU/mL))
[1]; 2.5% weight/volume
  B. subtillis growth grade, 3 day: 0
  B. subtillis growth grade, 14 day: 0
  B. subtillis growth grade, 30 day: 0
[1]; 5.0% weight/volume
  B. subtillis growth grade, 3 day: 0
  B. subtillis growth grade, 14 day: 0
  B. subtillis growth grade, 30 day: 0
[2]; 0.5% (wt/vol), 3 day
  Grade: 4 (1000 to 10,000 colonies countable (thus 10,000 CFU/mL to 100,000 CFU/mL))
[2]; 0.5% (wt/vol), 14 day
  Grade: 4 (1000 to 10,000 colonies countable (thus 10,000 CFU/mL to 100,000 CFU/mL))
[2]; 0.5% (wt/vol), 30 day
  Grade: 4 (1000 to 10,000 colonies countable (thus 10,000 CFU/mL to 100,000 CFU/mL))
[2]; 1.25% (wt/vol), 3 day
  Grade: 3 (100 to 1000 colonies (thus 1000 to 10,000 CFU/mL))
[2]; 1.25% (wt/vol), 14 day
  Grade: 2 (52 to 100 colonies counted (thus 520 to 1000 CFU/mL))
[2]; 1.25% (wt/vol), 30 day
  Grade: 2 (52 to 100 colonies counted (thus 520 to 1000 CFU/mL))
[2]; 2.5% (wt/vol), 3 day
  Grade: 1 (0 to 51 colonies counted (thus 10 to 510 CFU/mL based on 0.1-mL sample))
[2]; 2.5% (wt/vol), 14 day
  Grade: 0
[2]; 2.5% (wt/vol), 30 day
  Grade: 0
[2]; 5.0% (wt/vol), 3 day
  Grade: 0
[2]; 5.0% (wt/vol), 14 day
  Grade: 0
[2]; 5.0% (wt/vol), 30 day
  Grade: 0
[3]; 0.5% (wt/vol), 3 day
  Grade: 4 (1000 to 10,000 colonies countable (thus 10,000 CFU/mL to 100,000 CFU/mL))
[3]; 0.5% (wt/vol), 14 day
  Grade: 4 (1000 to 10,000 colonies countable (thus 10,000 CFU/mL to 100,000 CFU/mL))
[3]; 0.5% (wt/vol), 30 day
  Grade: 4 (1000 to 10,000 colonies countable (thus 10,000 CFU/mL to 100,000 CFU/mL))
[3]; 1.25% (wt/vol), 3 day
  Grade: 2.7
[3]; 1.25% (wt/vol), 14 day
  Grade: 2 (52 to 100 colonies counted (thus 520 to 1000 CFU/mL))
[3]; 1.25% (wt/vol), 30 day
  Grade: 2 (52 to 100 colonies counted (thus 520 to 1000 CFU/mL))
[3]; 2.5% (wt/vol), 3 day
  Grade: 1 (0 to 51 colonies counted (thus 10 to 510 CFU/mL based on 0.1-mL sample))
[3]; 2.5% (wt/vol), 14 day
  Grade: 0.3
[3]; 2.5% (wt/vol), 30 day
  Grade: 0.3
[3]; 5.0% (wt/vol), 3 day
  Grade: 0
[3]; 5.0% (wt/vol), 14 day
  Grade: 0
[3]; 5.0% (wt/vol), 30 day
  Grade: 0
[4]; 0.5% weight/volume
  S. epidermidis growth grade, 3 day: 4 (1000 to 10,000 colonies countable (thus 10,000 CFU/mL to 100,000 CFU/mL))
  S. epidermidis growth grade, 13 day: 3 (100 to 1000 colonies (thus 1000 to 10,000 CFU/mL))
  S. epidermidis growth grade, 30 day: 4 (1000 to 10,000 colonies countable (thus 10,000 CFU/mL to 100,000 CFU/mL))
[4]; 1.25% weight/volume
  S. epidermidis growth grade, 3 day: 2 (52 to 100 colonies counted (thus 520 to 1000 CFU/mL))
  S. epidermidis growth grade, 13 day: 1 (0 to 51 colonies counted (thus 10 to 510 CFU/mL based on 0.1-mL sample))
  S. epidermidis growth grade, 30 day: 0
[4]; 2.5% weight/volume
  S. epidermidis growth grade, 3 day: 0
  S. epidermidis growth grade, 13 day: 0
  S. epidermidis growth grade, 30 day: 0
[4]; 5.0% weight/volume
  S. epidermidis growth grade, 3 day: 0
  S. epidermidis growth grade, 13 day: 0
  S. epidermidis growth grade, 30 day: 0
[5]; 0.5% weight/volume
  S. mutans growth grade, 3 day: 4 (1000 to 10,000 colonies countable (thus 10,000 CFU/mL to 100,000 CFU/mL))
  S. mutans growth grade, 13 day: 4 (1000 to 10,000 colonies countable (thus 10,000 CFU/mL to 100,000 CFU/mL))
  S. mutans growth grade, 30 day: 4 (1000 to 10,000 colonies countable (thus 10,000 CFU/mL to 100,000 CFU/mL))
[5]; 1.25% weight/volume
  S. mutans growth grade, 3 day: 2 (52 to 100 colonies counted (thus 520 to 1000 CFU/mL))
  S. mutans growth grade, 13 day: 2 (52 to 100 colonies counted (thus 520 to 1000 CFU/mL))
  S. mutans growth grade, 30 day: 2 (52 to 100 colonies counted (thus 520 to 1000 CFU/mL))
[5]; 2.5% weight/volume
  S. mutans growth grade, 3 day: 0
  S. mutans growth grade, 13 day: 0
  S. mutans growth grade, 30 day: 0
[5]; 5.0% weight/volume
  S. mutans growth grade, 3 day: 0
  S. mutans growth grade, 13 day: 0
  S. mutans growth grade, 30 day: 0
